{"source": "patent US10717946B2", "about": "“Water soluble essential oils and their use” (KIMBERLY-CLARK WORLDWIDE, INC., priority 2012, dated 2020)", "system": "C. albicans SC5314", "format": "cell-based, Candida albicans", "method": "Based on the results in FIG. 3, single cell suspensions of SC5314 was prepared as follows. Stock culture of C. albicans SC5314 was streaked onto YPD agar (YPDA) and incubated at 30° C. overnight. Single colonies were subcultured in YPD broth (YPDB) and incubated at 30° C., 200 rpm overnight. Overnight culture in YPDB was subcultured in YPD broth again and incubated at 30° C., 200 rpm 48 h. Cells were collected by centrifugation (4000 g 10 min) at 4° C., washed three times with sterile water, and then resuspended in sterile water at a final concentration of 10^9 colony-forming unit/ml (cfu/ml). The suspension was stored at 4° C. at least 1 d, then subcultured into YPDB to a final concentration of 10^6 cfu/ml. After 48 h incubation, cell suspension was examined under the microscope for single cell percentage. When the single cell percentage exceeded 80%, cells were collected and washed three times with water, then resuspended in water to a final concentration of 10^9 cfu/ml, and stored at 4° C. for no more than a month.\nTwo approaches were taken to determine the percentage of cells with germ tubes formed (GTF %). One way was to count the total cells at the start of incubation, and count the ungerminated cells after incubation, then calculate the GTF % as (1−ungerminated cells/total cells at 0 h)*100. Another way was to store the samples at 15° C. for 20 h after incubation, then count the germinated cells and total cells after disaggregation, then calculated the GTF % as (germinated cells/total cells after storage)*100. […] Therefore, for practical purposes, the GTF % was determined by the first method, that is, GTF %=(1−ungerminated cells/total cells at 0 h)*100, for the in vitro screening discussed herein.\nA screening medium, containing 11 mM imidazole buffer, 3 m MMgSO4, and 2.6 mM N-acetyl-D-glucosamine (GlcNAc) has been used to study the effect of farnesol analogs on the germ tube formation of C. albicans. Here, the germ tube formation of C. albicans in modified screening media was assessed with various concentrations of imidazole buffer (10 mM, 30 mM, and 50 mM) and MgSO4 (0.5 mM, 1.5 mM, and 3 mM). […] It took 2 h to 3 h for the GTF % to reach above 80%. For practical purposes, the screening medium, containing 11 mM imidazole buffer, 0.5 m MMgSO4, and 2.6 mM N-acetyl-D-glucosamine (GlcNAc) was adopted for in vitro screening the quorum sensing inhibitory effect of farnesol compounds and botanicals. […]", "note": "Read-outs that look alike come from different tables or passages of the source.", "data": [{"smiles": "C=CCCCCCCCC", "note": "[1-Decene]", "values": [{"measurement": "GTF %control-GTF %sample (mean ± SD, n = 3)", "setting": "0.1%", "value": 0, "unit": "%"}, {"measurement": "GTF %control-GTF %sample (mean ± SD, n = 3)", "setting": "0.2%", "value": "35.2 ± 5.2", "unit": "%"}]}, {"smiles": "Cc1ccc(C(C)C)c(O)c1", "note": "[Thymol]", "values": [{"measurement": "GTF % (mean ± SEM, n = 3)", "setting": "1 mM", "value": "43.7 ± 5.2", "unit": "%"}]}, {"smiles": "CC(C)=CCCC(C)=CCCC(C)=CCO", "note": "[farnesol]", "values": [{"measurement": "GTF %control-GTF %sample (mean ± SD, n = 3)", "setting": "(0.0022%)", "value": "25.0 ± 4.1", "unit": "%"}]}]}
